Data set [1] is described as follows: Stability of heroin and its metabolites in DPBS without sera. Type of data set: physicochemical.
The conditions of data set [2]: in humans, Fig. 1a; cited from earlier work.
The nature of data set [3]: Stability of heroin and its metabolites in dilute mouse sera. The note with it: 24 h.
Data set [4] deals with plasma proteins. Description: Binding of D3-tracers to plasma proteins in dilute week 0 (preimmunized) sera by ED. Type of data set: in vitro ADME, mouse. The settings on record: ≥1:400 dilution of week 0 (preimmunized) sera.
Experimental: Week 0 and week 9 sera were considered as negative and anti-hapten sera, respectively. Anti-hapten sera solutions were prepared by diluting the sera in DPBS (1:400, 1:800, or 1:600). Dialysis buffer was prepared by diluting the corresponding negative sera in DPBS (1:400, 1:800, or 1:600). Competitive inhibitors with different initial concentrations were prepared in the dialysis buffer. For the test samples, anti-hapten sera/D3-tracer was run against the negative sera/inhibitors at the same sera dilution. […] For negative controls, negative sera/D3-tracer was run against the negative sera at the same sera dilution.
The test system of data set [5] is plasma proteins. The settings on record: neat plasma/sera; cited from earlier work.

On to 6-acetylmorphine [6-AM], for which, in data set [1] (DPBS pH 7.4, 4 °C), the “degradation in the absence of sera” value is given as “No degradation”. Also, in data set [2], the t1/2 is 22 to 26 min. For the same compound, the “hydrolysis of 6-AM in dilute sera” value in data set [3] (normal mouse sera, ≥1:200 dilutions, 4 °C) is “not observed”.
Turning to `[2H]C([2H])([2H])N1CCC23c4c5ccc(O)c4OC2C(OC(C)=O)C=CC3C1C5` (stereo not shown) [D3-6-AM], in the data set with plasma proteins [4], the “binding to the plasma proteins” value is reported as about 0%.
Consider `[2H]C([2H])([2H])N1CCC23c4c5ccc(O)c4OC2C(O)C=CC3C1C5` (stereo not shown) [D3-morphine], for which the “binding to the plasma proteins” value with plasma proteins [4] is reported as about 0%.
With `CC(=O)Oc1ccc2c3c1O[C@H]1[C@@H](OC(C)=O)C=C[C@H]4[C@@H](C2)N(C)CC[C@@]341` [heroin], the partial heroin hydrolysis in data set [1] (absence of sera, DPBS pH 7.4, 4 °C) was about 20%. In addition, in data set [1] (after 24 h in DPBS (− Sera), pH 7.4, 4 °C), the “% heroin remained intact” value was 79.9 ± 2.71%. The plasma binding in the data set on plasma proteins [5] is about 35%. In addition, the t1/2 in data set [2] is 3 to 4 min. The “amount of intact heroin” value in data set [3] (1:400 sera dilution with iso-OMPA and BNPP) is listed as at least 80%. Further, the “hydrolysis of heroin in dilute sera” value in data set [3] (normal mouse sera, all dilutions (1:25-1:400), 4 °C) is “extensive hydrolysis”.
On to `CN1CC[C@]23c4c5ccc(O)c4O[C@H]2[C@@H](O)C=C[C@H]3[C@H]1C5` [morphine], for which, in data set [1] (DPBS pH 7.4, 4 °C), the “degradation in the absence of sera” value is given as “No degradation”. Further, in data set [3] (normal mouse sera, ≥1:100 dilutions, 4 °C), the “degradation of morphine in dilute sera” value is “not observed”.

The values are drawn from publication PMC4718952, “A simple nonradioactive method for the determination of the binding affinities of antibodies induced by hapten bioconjugates for drugs of abuse” (Analytical and Bioanalytical Chemistry, 2015).
